Laboratory results reported in the supplement of paper PMC10307832.

What was measured:
Test in all cases: relative viability (nuclei count vs DMSO), 5 days (fraction); higher = more cells survive
[1] = compound: C1=CC=C2C(=C1)C=CC(=C2SSC3=C(C=CC4=CC=CC=C43)O)O [IPA-3] + C[C@@H](Oc1cc(-c2cnn(C3CCNCC3)c2)cnc1N)c1c(Cl)ccc(F)c1Cl [Crizotinib] (partner 1 µM)
Summary of the method: (§1)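 One day after seeding in 1536-well plates, lung cancer cell lines were dosed by pin tool. Dosing was either single-drug or a fixed anchor-drug dose plus five library-drug doses (not always all listed) in √10 steps. After 5 days, nuclei were stained in one fix-and-stain step and counted on 4× images, and relative viability is the nuclei count of treated wells over that of vehicle wells, given as the median of duplicate plates.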

[2] = compound: C1=CC=C2C(=C1)C=CC(=C2SSC3=C(C=CC4=CC=CC=C43)O)O [IPA-3] + C[C@]1(O)C[C@@H](c2nc(-c3ccc4ccc(-c5ccccc5)nc4c3)c3c(N)nccn32)C1 [Linsitinib] (partner 1 µM)
Summary of the method: as §1

[3] = compound: C1=CC=C2C(=C1)C=CC(=C2SSC3=C(C=CC4=CC=CC=C43)O)O [IPA-3] + Cc1nc(NC(=O)N2CCC[C@H]2C(N)=O)sc1-c1ccnc(C(C)(C)C(F)(F)F)c1 [Alpelisib] (partner 2 µM)
Summary of the method: as §1

[4] = compound: C1=CC=C2C(=C1)C=CC(=C2SSC3=C(C=CC4=CC=CC=C43)O)O [IPA-3] + O=C(c1cc(Cc2n[nH]c(=O)c3ccccc23)ccc1F)N1CCN(C(=O)C2CC2)CC1 [Olaparib] (partner 8 µM)
Summary of the method: as §1

Cell Line	relative viability ([1]; first compound 0.2 µM)	relative viability ([1]; first compound 0.6325 µM)	relative viability ([1]; first compound 2 µM)	relative viability ([1]; first compound 6.325 µM)	relative viability ([1]; first compound 20 µM)	relative viability ([2]; first compound 0.2 µM)	relative viability ([2]; first compound 0.6325 µM)	relative viability ([2]; first compound 2 µM)	relative viability ([2]; first compound 6.325 µM)	relative viability ([2]; first compound 20 µM)	relative viability ([3]; first compound 0.2 µM)	relative viability ([3]; first compound 0.6325 µM)	relative viability ([3]; first compound 2 µM)	relative viability ([3]; first compound 6.325 µM)	relative viability ([3]; first compound 20 µM)	relative viability ([4]; first compound 0.2 µM)	relative viability ([4]; first compound 0.6325 µM)	relative viability ([4]; first compound 2 µM)	relative viability ([4]; first compound 6.325 µM)	relative viability ([4]; first compound 20 µM)
201T	1.04	1.01	1.05	1.03	1.04	0.986	0.992	1.04	1.04	1.09	1.02	1.01	0.997	0.936	1.04	0.833	0.845	0.833	0.83	0.885
A549	0.886	0.76	0.745	0.819	0.89	0.653	0.582	0.683	0.591	0.775	0.926	0.705	0.838	0.753	0.745	0.375	0.312	0.302	0.331	0.414
A-427	1.11	0.775	0.896	0.91	1.12	1.13	0.951	1.18	1.12	1.13	1.11	0.993	1.11	1.08	1.14	0.73	0.723	0.697	0.607	0.662
ABC-1	1.12	1.17		0.981	1.06	0.862	0.752		0.715	1.06	1.23	1.11		0.881	1.07	0.827	0.78	0.582	0.658	0.89
BEN	1.01	0.905	0.98	0.788	0.961	0.986	1.01	0.974	1.05	1.18	1.28	0.992	1.09	0.954	1.26	1.07	1.15	1.08	1.06	1.23
CAL-12T	0.479	0.6	0.699	0.516	0.69	0.93	0.715	0.914	0.79	0.935	1.38	1.14	1.18	0.999	1.27	0.749	0.693	0.72	0.668	0.678
COR-L23	0.695	0.699	0.682	0.604	0.601	1.13	0.837	0.92	0.797	0.819	0.872	0.769	0.861	0.589	0.587	0.314	0.34	0.406	0.281	0.301
COR-L 105	0.954	0.757	0.704	0.788	0.964	1.07	0.98	0.843	0.542	0.962	0.998	0.964	1.17	0.859	1.11	0.757	0.622	0.663	0.755	0.665
Calu-6	1.06	0.75	0.81	0.795	0.966	1.14	0.937	0.878	0.952	0.958	1.08	1.01	1.01	0.928	0.924	0.629	0.503	0.617	0.596	0.426
ChaGo-K-1	1.32	1.08	1.17	1.09	1.23											0.458	0.421	0.413	0.441	0.392
EBC-1	0.188	0.186	0.168	0.195	0.193	1.12	0.729	0.911	0.841	0.871	0.992	0.73	0.821	0.811	0.475	0.904	0.668	0.715	0.607	0.493
EKVX	1.24	0.965	0.951	0.799	1.22	1.1	1.06	1.05	0.97	1.43	0.923	0.859	0.941	0.941	1.27	0.942	0.934	0.787	0.774	0.86
EMC-BAC-2	0.79	0.769	0.771	0.698	0.829	0.855	0.808	0.884	0.804	0.907	0.813	0.744	0.785	0.694	0.822	0.5	0.468	0.447	0.459	0.412
EPLC-272H	1.16	0.808	0.995	0.912	1.23	1.16	1.13	1.22	1.14	1.41	0.962	0.947	0.902	0.968	1.23	1.16	0.628	0.797	0.787	0.887
H3255	1.11	0.86	0.962	0.749	1.03	1.09	0.874	0.932	0.963	1.11	0.798	0.774	0.48	0.657	0.863	0.605	0.555	0.565	0.518	0.562
HARA	1.21	1.22	1.09	1.14	1.24	1.08	0.912	0.935	0.916	1.02	0.897	0.784	0.919	0.804	1.05	0.8	0.802	0.971	0.694	0.676
HCC-15	0.812	0.855	0.825	0.776	0.886	0.934	0.81	0.951	0.888	0.918	1.01	0.831	0.73	0.876	0.928	0.842	0.699	0.694	0.741	0.728
